Patent US20030191188A1, “Method for treating migraine symptoms with ibuprofen and salts thereof” (priority 1999, published 2003)

Key:
[1] = test system: Subjects suffering from photophobia due to a migraine; assay: Treatment of photophobia due to a migraine, placebo-controlled subject study; format: in vivo; details: 200 or 400 milligrams of ibuprofen vs placebo; approximately 650 subjects; at time of two hours or longer
Source text: FIG. 1 depicts the percentage of subjects with reduced photophobia over time after treatment with ibuprofen. Subjects suffering from photophobia due to a migraine were either given a placebo or treated with 200 or 400 milligrams of ibuprofen. Approximately 650 subjects were in the study. Some subjects were given placebos, while others were given either 200 or 400 milligrams of ibuprofen.

[2] = test system: Subjects suffering from phonophobia due to a migraine; assay: Treatment of phonophobia due to a migraine, placebo-controlled subject study; format: in vivo; details: 200 or 400 milligrams of ibuprofen in tablet form vs placebo; at time of two hours or longer
Source text: FIG. 2 depicts the percentage of subjects with reduced phonophobia over time over time after treatment with ibuprofen. Subjects suffering from phonophobia due to a migraine were either given a placebo or treated with 200 or 400 milligrams of ibuprofen in tablet form.

CC(C)Cc1ccc(C(C)C(=O)O)cc1 (centres unmarked) [ibuprofen]
relief of photophobia (percentage of subjects with reduced photophobia over time, FIG. 1) [1]: effective in relieving photophobia | relief of phonophobia (percentage of subjects with reduced phonophobia over time, FIG. 2); text prints photophobia [2]: effective in relieving photophobia
